This test has as its target histone deacetylase (HeLa nuclear extracts). Description: In vitro assay for inhibition of histone deacetylase (HDAC Fluorescent Activity Assay, Fluor de Lys). The conditions noted are these: HeLa nuclear extracts 60 μg/ml, 75 μM Fluor de Lys substrate. It is filed as biochemical. From the text:
The in vitro assay for inhibition of histone deacetylase (see example C.1) measures the inhibition of HDAC enzymatic activity obtained with the compounds of formula (I).
The HDAC Fluorescent Activity Assay/Drug Discovery Kit of Biomol (cat.No: AK-500-0001) was used. The HDAC Fluorescent Activity Assay is based on the Fluor de Lys (Fluorogenic Histone deAcetylase Lysyl) substrate and developer combination. The Fluor de Lys substrate, comprises an acetylated lysine side chain. Deacetylation of the substrate sensitizes the substrate so that, in the second step, treatment with the Fluor de Lys developer produces a fluorophore.
HeLa nuclear extracts (supplier: Biomol) were incubated at 60 μg/ml with 75 μM of substrate. The Fluor de Lys substrate was added in a buffer containing 25 mM Tris, 137 mM. NaCl, 2.7 mM KCl and 1 mM MgCl2.6H2O at pH 7.4. After 30 min, 1 volume of the developer was added. The fluorophore was excited with 355 nm light and the emitted light (450 nm) was be detected on a fluorometric plate reader.
For each experiment, controls (containing HeLa nuclear extract and buffer), a blank incubation (containing buffer but no HeLa nuclear extract) and samples (containing compound dissolved in DMSO and further diluted in buffer and HeLa nuclear extract) were run in parallel. In first instance, compounds were tested at a concentration of 10^−5M. […] All sample were tested 4 times. In each test the blank value was substracted from both the control and the sample values. The control sample represented 100% of substrate deactylation. For each sample the fluorescence was expressed as a percentage of the mean value of the controls. […] Herein the effects of test compounds are expressed as pIC50 (the negative log value of the IC50-value) (see Table F-3).

With `O=C(NO)c1cnc(N2CCC(CNC(/C=C/c3ccccc3)CO)CC2)nc1` (stereo not shown) [Compound 1], the “Enzyme activity pIC50” value was determined as 9.0.

These data come from US8377935B2, “Substituted aminopropenyl piperidine or morpholine derivatives as novel inhibitors of histone deacetylase” (Janssen Pharmaceutica N.V., priority 2005, dated 2013).
